Assay results published in patent US11986532B2 (Arvinas Operations, Inc., priority 2021, dated 2024).
Read-outs that look alike come from different tables or passages of the source.

Biological target: T1, BCL6 (Homo sapiens, UniProt P41182)
T1 construct: endogenous in cells; host or cells: T47D breast cancer epithelial cells
Test: Immunofluorescence protocol for high content imaging of BCL6 (degradation) in T47D cells, 3 days compound treatment
Format: cell-based
Conditions: for DC50: read-out: Mean DC50 (nM)* category; for Dmax: read-out: Mean Dmax (%)** category
Outline: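 T47D, RPMI1640/10% FBS; cpd 11-pt 3-fold, top 0.1 or 1 μM final; 3 d, 37° C. Fix 4% PFA, perm 0.1% Triton, block 3% BSA; anti-BCL6 1:300 o/n 4° C; Alexa-488 2°, CellMask-647, Hoechst. Imaged 10×, 4 fields/well.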

[1] = T47D cells, 3 days compound treatment

Row | Compound | DC50 [1] [nM] | Dmax [1] [%] | Dmax (T47D) [%] | DC50 [nM]
1 | CNC(=O)COc1cc2cc(Nc3nc(N4CCC(CN5CCC6(CN(c7cc8c(cc7F)C(=O)N(C7CCC(=O)NC7=O)C8)C6)C(F)(F)C5)CC4)ncc3Cl)ccc2n(C(C)C)c1=O (centres unmarked) [Compound 100, 2-{[6-({5-chloro-2-[4-({2-[2-(2,6-dioxopiperidin-3-yl)-6-fluoro-1-oxo-2,3-dihydro-1H-isoindol-5-yl]-5,5-difluoro-2,7-diazaspiro[3.5]nonan-7-yl}methyl)piperidin-1-yl]pyrimidin-4-yl}amino)-2-oxo-1-(propan-2-yl)-1,2-dihydroquinolin-3-yl]oxy}-N-methylacetamide] | < 10 | 50 to 70 | – | –
2 | CNC(=O)COc1cc2cc(Nc3nc(N4CCC(CN5CCC6(CC5)CN(c5ccc7c(c5C(C)C)CN(C5CCC(=O)NC5=O)C7=O)C6)CC4)ncc3Cl)ccc2n(C(C)C)c1=O (centres unmarked) [Compound 272, 2-{[6-({5-chloro-2-[4-({2-[2-(2,6-dioxopiperidin-3-yl)-1-oxo-4-(propan-2-yl)-2,3-dihydro-1H-isoindol-5-yl]-2,7-diazaspiro[3.5]nonan-7-yl}methyl)piperidin-1-yl]pyrimidin-4-yl}amino)-2-oxo-1-(propan-2-yl)-1,2-dihydroquinolin-3-yl]oxy}-N-methylacetamide] | – | – | 50 to 70 | < 10
3 | CNC(=O)COc1cc2cc(Nc3nc(N4CCC(O[C@H]5C[C@H](N6CCN(c7ccc8c(n7)C(C)N(C7CCC(=O)NC7=O)C8=O)[C@@H](C)C6)C5)CC4)ncc3Cl)ccc2n(C(C)C)c1=O (some centres unmarked) [Compound 204] | < 10 | ≥ 70 | – | –
4 | CNC(=O)COc1cc2cc(Nc3nc(N4CCC(O[C@H]5C[C@H](N6CCN(c7cc(C)c8c(c7)C(=O)N(C7CCC(=O)NC7=O)C8=O)CC6)C5)CC4)ncc3Cl)ccc2n(C(C)C)c1=O (some centres unmarked) [Compound 378, 2-({6-[(5-chloro-2-{4-[(1r,3r)-3-{4-[2-(2,6-dioxopiperidin-3-yl)-7-methyl-1,3-dioxo-2,3-dihydro-1H-isoindol-5-yl]piperazin-1-yl}cyclobutoxy]piperidin-1-yl}pyrimidin-4-yl)amino]-2-oxo-1-(propan-2-yl)-1,2-dihydroquinolin-3-yl}oxy)-N-methylacetamide] | – | – | 50 to 70 | 10 to 50
5 | CCNC(=O)COc1cc2cc(Nc3nc(N4CCC(CN5CCC6(CC5)CN(c5ccc7c(c5)C(=O)N(C5CCC(=O)NC5=O)C7=O)C6)CC4)ncc3Cl)ccc2n(C(C)C)c1=O (centres unmarked) [Compound 56, 2-{[6-({5-chloro-2-[4-({2-[2-(2,6-dioxopiperidin-3-yl)-1,3-dioxo-2,3-dihydro-1H-isoindol-5-yl]-2,7-diazaspiro[3.5]nonan-7-yl}methyl)piperidin-1-yl]pyrimidin-4-yl}amino)-2-oxo-1-(propan-2-yl)-1,2-dihydroquinolin-3-yl]oxy}-N-ethylacetamide] | ≥ 100 | ≥ 70 | – | –
6 | CNC(=O)COc1cc2cc(Nc3nc(N4CCC(O[C@H]5C[C@H](N6CCN(c7ccc8c(c7Cl)CN(C7CCC(=O)NC7=O)C8=O)CC6)C5)CC4)ncc3Cl)ccc2n(C(C)C)c1=O (some centres unmarked) [Compound 181, 2-({6-[(5-chloro-2-{4-[(1r,3r)-3-{4-[4-chloro-2-(2,6-dioxopiperidin-3-yl)-1-oxo-2,3-dihydro-1H-isoindol-5-yl]piperazin-1-yl}cyclobutoxy]piperidin-1-yl}pyrimidin-4-yl)amino]-2-oxo-1-(propan-2-yl)-1,2-dihydroquinolin-3-yl}oxy)-N-methylacetamide] | < 10 | ≥ 70 | – | –
7 | CNC(=O)COc1cc2cc(Nc3cc(N4CCC(CN5CCC6(CN(c7ccc8c(c7F)CN(C7CCC(=O)NC7=O)C8=O)C6)C(F)(F)C5)CC4)ncc3Cl)ccc2n(C(C)C)c1=O (centres unmarked) [Compound 237, 2-{[6-({5-chloro-2-[4-({2-[2-(2,6-dioxopiperidin-3-yl)-4-fluoro-1-oxo-2,3-dihydro-1H-isoindol-5-yl]-5,5-difluoro-2,7-diazaspiro[3.5]nonan-7-yl}methyl)piperidin-1-yl]pyridin-4-yl}amino)-2-oxo-1-(propan-2-yl)-1,2-dihydroquinolin-3-yl]oxy}-N-methylacetamide] | – | – | 50 to 70 | < 10
8 | CNC(=O)COc1cc2cc(Nc3nc(N4CCC(CN5CCN(c6ccc7c(c6F)CN(C6CCC(=O)NC6=O)C7=O)CC5)CC4)ncc3Cl)ccc2n(C(C)C)c1=O (centres unmarked) [Compound 322, 2-{[6-({5-chloro-2-[4-({4-[2-(2,6-dioxopiperidin-3-yl)-4-fluoro-1-oxo-2,3-dihydro-1H-isoindol-5-yl]piperazin-1-yl}methyl)piperidin-1-yl]pyrimidin-4-yl}amino)-2-oxo-1-(propan-2-yl)-1,2-dihydroquinolin-3-yl]oxy}-N-methylacetamide] | – | – | 50 to 70 | < 10
9 | CNC(=O)COc1cc2cc(Nc3nc(N4CCCCC4)ncc3Cl)ccc2n(CCOc2ccc3c(c2)C(=O)N(C2CCC(=O)NC2=O)C3=O)c1=O (centres unmarked) [Compound 29, 2-[(6-{[5-chloro-2-(piperidin-1-yl)pyrimidin-4-yl]amino}-1-(2-{[2-(2,6-dioxopiperidin-3-yl)-1,3-dioxo-2,3-dihydro-1H-isoindol-5-yl]oxy}ethyl)-2-oxo-1,2-dihydroquinolin-3-yl)oxy]-N-methylacetamide] | 10 to 50 | 50 to 70 | – | –
10 | CNC(=O)COc1cc2cc(Nc3nc(N4CCC(O[C@H]5C[C@H](N6CC7(CN(c8ccc9c(c8)C(=O)N(C8CCC(=O)NC8=O)C9=O)C7)C6)C5)CC4)ncc3Cl)ccc2n(C(C)C)c1=O (some centres unmarked) [Compound 311, 2-({6-[(5-chloro-2-{4-[(1r,3r)-3-{6-[2-(2,6-dioxopiperidin-3-yl)-1,3-dioxo-2,3-dihydro-1H-isoindol-5-yl]-2,6-diazaspiro[3.3]heptan-2-yl}cyclobutoxy]piperidin-1-yl}pyrimidin-4-yl)amino]-2-oxo-1-(propan-2-yl)-1,2-dihydroquinolin-3-yl}oxy)-N-methylacetamide] | – | – | 50 to 70 | < 10
11 | CNC(=O)COc1cc2cc(Nc3nc(N4CCC(O[C@H]5C[C@H](N6CCC(c7ccc8c(c7F)[C@H](C)N([C@H]7CCC(=O)NC7=O)C8=O)CC6)C5)CC4)ncc3Cl)ccc2n(C(C)C)c1=O [Compound 290, 2-({6-[(5-chloro-2-{4-[(1r,3r)-3-{4-[(3S)-2-[(3S)-2,6-dioxopiperidin-3-yl]-4-fluoro-3-methyl-1-oxo-2,3-dihydro-1H-isoindol-5-yl]piperidin-1-yl}cyclobutoxy]piperidin-1-yl}pyrimidin-4-yl)amino]-2-oxo-1-(propan-2-yl)-1,2-dihydroquinolin-3-yl}oxy)-N-methylacetamide] | – | – | ≥ 70 | < 10
12 | CNC(=O)COc1cc2cc(Nc3nc(N4CCC(CN5CCC6(CC5)CC5(CN(c7ccc8c(c7)CN(C7CCC(=O)NC7=O)C8=O)C5)C6)CC4)ncc3Cl)ccc2n(C(C)C)c1=O (centres unmarked) [Compound 168, 2-{[6-({5-chloro-2-[4-({2-[2-(2,6-dioxopiperidin-3-yl)-1-oxo-2,3-dihydro-1H-isoindol-5-yl]-2,9-diazadispiro[3.1.5^6.1^4]dodecan-9-yl}methyl)piperidin-1-yl]pyrimidin-4-yl}amino)-2-oxo-1-(propan-2-yl)-1,2-dihydroquinolin-3-yl]oxy}-N-methylacetamide] | < 10 | 50 to 70 | – | –

Further lines, with some results ahead:

Row | DC50 [1] [nM] | Dmax [1] [%] | Compound | Dmax (T47D) [%] | DC50 [nM]
13 | < 10 | ≥ 70 | CNC(=O)COc1cc2cc(Nc3nc(N4CCC(CN5CCC6(CC5)CN(c5ccc7c(c5F)CN(C5CCC(=O)NC5=O)C7=O)C6(C)C)CC4)ncc3Cl)ccc2n(C(C)C)c1=O (centres unmarked) [Compound 162, 2-{[6-({5-chloro-2-[4-({2-[2-(2,6-dioxopiperidin-3-yl)-4-fluoro-1-oxo-2,3-dihydro-1H-isoindol-5-yl]-1,1-dimethyl-2,7-diazaspiro[3.5]nonan-7-yl}methyl)piperidin-1-yl]pyrimidin-4-yl}amino)-2-oxo-1-(propan-2-yl)-1,2-dihydroquinolin-3-yl]oxy}-N-methylacetamide] | – | –
14 | ≥ 100 | 50 to 70 | CNC(=O)COc1cc2cc(Nc3nc(N4CCC5(CC4)CC(C(C)(C)N4CCC(c6cccc7c6CN(C6CCC(=O)NC6=O)C7=O)CC4)C5)ncc3Cl)ccc2n(C(C)C)c1=O (centres unmarked) [Compound 154, 2-{[6-({5-chloro-2-[2-(2-{4-[2-(2,6-dioxopiperidin-3-yl)-1-oxo-2,3-dihydro-1H-isoindol-4-yl]piperidin-1-yl}propan-2-yl)-7-azaspiro[3.5]nonan-7-yl]pyrimidin-4-yl}amino)-2-oxo-1-(propan-2-yl)-1,2-dihydroquinolin-3-yl]oxy}-N-methylacetamide] | – | –
15 | < 10 | 50 to 70 | CNC(=O)COc1cc2cc(Nc3nc(N4CCC5(CC4)CC(C(C)(C)N4CCN(c6cccc7c6CN(C6CCC(=O)NC6=O)C7=O)CC4)C5)ncc3Cl)ccc2n(C(C)C)c1=O (centres unmarked) [Compound 34, 2-{[6-({5-chloro-2-[2-(2-{4-[2-(2,6-dioxopiperidin-3-yl)-1-oxo-2,3-dihydro-1H-isoindol-4-yl]piperazin-1-yl}propan-2-yl)-7-azaspiro[3.5]nonan-7-yl]pyrimidin-4-yl}amino)-2-oxo-1-(propan-2-yl)-1,2-dihydroquinolin-3-yl]oxy}-N-methylacetamide] | – | –
16 | < 10 | ≥ 70 | CNC(=O)COc1cc2cc(Nc3nc(N4CCC5(CC4)CC(CN4CCN(c6cccc7c6CN(C6CCC(=O)NC6=O)C7=O)CC4)C5)ncc3Cl)ccc2n(C(C)C)c1=O (centres unmarked) [Compound 14, 2-{[6-({5-chloro-2-[2-({4-[2-(2,6-dioxopiperidin-3-yl)-1-oxo-2,3-dihydro-1H-isoindol-4-yl]piperazin-1-yl}methyl)-7-azaspiro[3.5]nonan-7-yl]pyrimidin-4-yl}amino)-2-oxo-1-(propan-2-yl)-1,2-dihydroquinolin-3-yl]oxy}-N-methylacetamide] | – | –
